Results: publication PMC8950828 (Viruses, 2022)
Like-named read-outs stand apart in the source and are kept apart here.

Assays:
in vitro [1] = conditions: human
in vitro [2] = conditions: human; remark: listed apart in the source
in vitro [3] = conditions: human; remark: listed apart in the source
in vitro [4] = conditions: human; remark: listed apart in the source
[5] = system: primary human immune cells (monocytes, M1 macrophages, M2 macrophages, MdDCs and T cells); assay: Orangu cell viability assay, primary human immune cells overall; conditions: all tested immune cell types, 0.5–100 nM
in vitro [6] = conditions: human; remark: listed apart in the source
MERS-CoV [7] = conditions: cited from earlier work
M2 macrophages = conditions: human
MERS-CoV [8] = type: cell-based, Middle East respiratory syndrome coronavirus
[9] = system: monocyte-derived dendritic cells (MdDCs); conditions: human
[10] = system: 5′-UTRs of HCoV-229E, MERS-CoV and SARS-CoV-2; type: cell-based, human
5′-UTR of HEV (HEVgt3c) = type: cell-based, human
HCoV-229E [11] = conditions: cited from earlier work
SARS-CoV-2 [12] = conditions: cited from earlier work
MERS-CoV [13] = assay: microbe, parasite or virus in culture; type: cell-based, Middle East respiratory syndrome coronavirus
SARS-CoV-2 [14] = assay: microbe, parasite or virus in culture; type: cell-based
SARS-CoV-2 [15] = conditions: cited from earlier work; remark: listed apart in the source
HCoV-229E [16] = assay: microbe, parasite or virus in culture; type: cell-based, human coronavirus 229E

## CONC(=O)[C@@H]1[C@H](O)[C@]2(O)c3c(OC)cc(OC)cc3O[C@]2(c2ccc(OC)cc2)[C@H]1c1ccccc1 [CR-1-30-B]
In vitro [1]
  CC50: > 100 nM
In vitro [2]
  CC50: > 100 nM
In vitro [3]
  CC50: > 100 nM
In vitro [4]
  CC50: > 100 nM
[5]
  impact on cell viability: essentially no impact on cell viability at all
In vitro [6]
  CC50: > 100 nM

## CONC(=O)[C@H]1[C@@H](O)[C@@]2(O)c3c(OC)cc(OC)cc3O[C@@]2(c2ccc(OC)cc2)[C@@H]1c1ccccc1 [CR-1-31-B]
MERS-CoV [7]
  EC50: 1.9 nM
M2 macrophages
  reduction of viability: approximately 50%
MERS-CoV [8]
  effect on the replication of MERS-CoV: no significant effect
  reduction of viral replication: nearly undetectable levels
T cells
  effect on viability: not affected
[9]
  reduction of viability: approximately 50%
[10]
  translation efficiency (reporter gene expression) with coronavirus 5′-UTRs: sensitive
5′-UTR of HEV (HEVgt3c)
  translation inhibition of HEVgt3c 5′-UTR reporter: translation inhibition only in the presence of a polypurine stretch
  translation inhibition of HEVgt3c-Purine: regain translation inhibition
HCoV-229E [11]
  EC50: 2.9 nM
NHBE cells; human
  TEER signal reduction: ~ 25%
SARS-CoV-2 [12]
  EC50: 1.8 nM

## COC(=O)[C@H]1[C@@H](O)[C@@]2(O)c3c(OC)cc(O[C@@H]4O[C@@H]([C@H](O)CO)CO[C@H]4OC)cc3O[C@@]2(c2ccc(OC)cc2)[C@@H]1c1ccccc1 [Silvestrol]
MERS-CoV [7]
  EC50: 1.3 nM
M2 macrophages
  reduction of viability: approximately 50%
T cells
  effect on viability: not affected
[9]
  reduction of viability: approximately 50%
[10]
  translation efficiency (reporter gene expression) with coronavirus 5′-UTRs: sensitive
5′-UTR of HEV (HEVgt3c)
  translation inhibition of HEVgt3c 5′-UTR reporter: either a stable hairpin substrate or a polypurine stretch is sufficient
  translation inhibition of HEVgt3c-Purine: regain translation inhibition
  translation inhibition of destabilized variants: loss of the inhibitory effects
HCoV-229E [11]
  EC50: 3 nM

## COc1cc2c(c(OC)n1)[C@]1(O)[C@H](O)[C@H](CN(C)C)[C@@H](c3ccccc3)[C@]1(c1ccc(C#N)cc1)O2 [Zotatifin]
MERS-CoV [8]
  effect on the replication of MERS-CoV: no significant effect
  reduction of viral replication: about two orders of magnitude
[10]
  translation efficiency (reporter gene expression) with coronavirus 5′-UTRs: sensitive
  translation inhibition compared with 10 nM of silvestrol or CR-1-31-B: slightly weaker
MERS-CoV [13]
  EC50: 4.31 nM
MERS-CoV [13]; Middle East respiratory syndrome-related coronavirus, MRC5
  EC50: 4.3 nM
SARS-CoV-2 [14]
  EC50: 41.6 nM
  fold less efficient (higher EC50) than CR-1-31-B against SARS-CoV-2: around 20 fold
SARS-CoV-2 [14]; Severe acute respiratory syndrome coronavirus 2, Vero C1008
  EC50: 41.6 nM
SARS-CoV-2 [15]
  EC90: 37 nM
5′-UTR of HEV (HEVgt3c)
  translation inhibition of HEVgt3c 5′-UTR reporter: translation inhibition
  translation inhibition of HEVgt3c-Purine: regain translation inhibition
  translation inhibition of destabilized variants: loss of the inhibitory effects
HCoV-229E [16]
  EC50: 3.86 nM
HCoV-229E [16]; Human coronavirus 229E, MRC5
  EC50: 3.9 nM
MRC-5 cells
  cytotoxicity: no significant cytotoxicity
NHBE cells
  cytotoxicity by TEER: no significant cytotoxicity
Human monocytes
  viability reduced to: approximately 75%
